Assay results published in patent US20220047658A1, “TCM ADDITION AND SUBTRACTION PRESCRIPTION USED PREVENTION/TREATMENT OF METABOLIC SYNDROME AND COMPLICATIONS” (priority 2019, published 2022).

Legend:
Type in all cases: in vivo
[1] = test system: db/db mice; assay: Test for urine creatinine (diabetic nephropathy test); settings: 29-d raise, MET 350 mg/kg, FIG. 6
Text: (§1) Overnight urine is collected and placed on crushed ice to test urine total protein, urine albumin, urine microalbumin, and urine creatinine.
(§2) To investigate TCM complex for prevention and treatment of type II diabetes mellitus in animal model, grade SPF BKS.Cg-Dock7m+/+Leprdb/J mice (referred to as db/db mice for short) were used to conduct a hypoglycemic experiment validation. The mice were allowed with free access to feed and water. The mice were assigned into 4 groups (4 mice per group), and were administered intragastrically with the complex, once per day. […] The animals of each group were orally administered with the sample to Week 4. Urine and blood were collected 4 week later.
(§3) The drugs in the drug groups included Poria, Semen Coicis, Rhizoma Dioscoreae, Semen Euryales, Semen Nelumbinis, Endothelium Corneum Gigeriae Galli, and Paeonia Lactiflora; the preparation method is that, Poria, Semen Coicis, Rhizoma Dioscoreae, Semen Euryales, Semen Nelumbinis, Endothelium Corneum Gigeriae Galli, and Paeonia Lactiflora were prepared and then compounded in a weight ratio of 1:1:1:1:1:1:2 to produce a powder. The obtained powder was diluted in a certain proportion to obtain RX−6 of the low dose (6 mg/kg) drug group, and RX-12 of the high dose (12 mg/kg) drug group. […]

[2] = test system: db/db mice; assay: Measurement of fasting blood glucose level; settings: MET 350 mg/kg, 2 d after oral administration, data not shown
Protocol: Fasting blood glucose means blood glucose level under the basal condition, reflecting the basal function of pancreatic islet B cells, and is an important criterion for diagnosis of diabetes mellitus. Oral glucose tolerance test means determination of fasting blood glucose after animals are fasted, and then animals are administered with the drug and administered intragastrically with glucose solution at the corresponding timepoints, and blood glucose is measured prior to intragastric administration of glucose, and 30 min, 60 min and 120 min after intragastric administration of glucose.
as §2, with “later. […]” for “later.”
After animals were fasted for 4-6 h, blood was collected at tail end to measure fasting blood glucose. Fasting blood glucose was measured for 4 times, i.e.: prior to grouping, and D2, D7, and D15 after administration of the drug.

[3] = test system: db/db mice; assay: Quantitative test for UTP 24-h urine protein (diabetic nephropathy test); settings: D29, RX-6 6 mg/kg, RX-12 12 mg/kg, MET 350 mg/kg, NOR 39.30 mg/DL, FIG. 3
Text: as §1, §2
as §3, with “powder.” for “powder. The obtained powder was diluted in a certain proportion to obtain RX−6 of the low dose (6 mg/kg) drug group, and RX-12 of the high dose (12 mg/kg) drug group.”
Quantitative test for 24 h urine protein (UTP24) is a urine test method in which 24-h discharged total urine is collected to conduct a […] test.

[4] = test system: db/db mice; assay: Test for mAlb urine microalbumin (diabetic nephropathy test); settings: D29, RX-6 6 mg/kg, RX-12 12 mg/kg, MET 350 mg/kg, NOR 20.10 mg/L, FIG. 5
Text: as §1, §2, §3

[5] = test system: db/db mice; assay: Measurement of glycosylated hemoglobin (HbAlc) concentration; settings: D29, once per day intragastric, RX-6 6 mg/kg, RX-12 12 mg/kg, MET 350 mg/kg, NOR 8.85%, FIG. 2
Text: Glycosylated hemoglobin (GHb) is a product hemoglobin in red blood cells, conjugated with saccharides in serum. GHb is formed via slow, persistent, and irreversible glycation; its content is dependent on blood glucose concentration, and exposure duration of blood glucose to hemoglobin, and independent of blood collection time, patients' fasting or non-fasting status, or insulin use or non-use, etc. Therefore, GHb may efficiently reflect blood glucose control in patients with diabetes mellitus in the past 1-2 month.
Test method: after animal are fasted, 20 μL of whole blood is collected and placed into an EP tube containing HbAlc diluent; the content of HbAlc is measured by a full-automatic analyzer. The specific method refers to the Instructions of the Kit.
To investigate TCM complex for prevention and treatment of type II diabetes mellitus in animal model, grade SPF BKS.Cg-Dock7m+/+Leprdb/J mice (referred to as db/db mice for short) were used to conduct a hypoglycemic experiment validation. The mice were allowed with free access to feed and water. […]
The concentration was measured on D29 after oral administration of the drug. The animals were fasted for 4-6 h, and then anesthetized by inhalation of isoflurane; […] of whole blood was collected from orbital venous plexus and placed into a EP tube containing HbAlc diluent; the content of HbAlc was measured by a full-automatic analyzer. […]

[6] = test system: db/db mice; assay: Non-fasting blood glucose level; settings: MET 350 mg/kg, D4 after oral administration
Protocol: The measured value of 2-H postprandial blood glucose test is the most valuable and may reflect reserve function of pancreatic islet B cells. Blood glucose is measured after animals eat feed.
as §2, with “later. […]” for “later.”
The animals were fed randomly and then blood was collected at tail end to measure non-fasting blood glucose level. Fasting blood glucose was measured for […], i.e.: prior to grouping, and 24 h, D4, D7, D15, D21, and D27 after administration of the drug.

## CN(C)C(=N)N=C(N)N [MET, metformin]
[1]
  urine creatinine increased than that in the negative control group NOR: 10.5 µM
[2]
  fasting blood glucose level compared with negative control group NOR: less than that in negative control group NOR
[3]
  UTP24 h urine protein: 39.65 mg/dL
[4]
  mAlb urine microalbumin content: 8.50 mg/L
[5]
  glycosylated hemoglobin value (HbAlc): 6%
[6]
  non-fasting blood glucose level compared with control: less than that in the positive control
